Assay results reported in the NIST ThermoML archive (doi:10.1021/je700152c).
“And” between values parts separate entries of the source, which are not always exact repeats. Identical values can stand only once.

Assay: molar heat capacity at saturation pressure

CCCCn1cc[n+](C)c1.Cc1ccc(S(=O)(=O)[O-])cc1 [1-butyl-3-methylimidazolium tosylate]
Conditions | molar heat capacity
125.01 K, Crystal 2 | 211.89 J/K/mol
125.12 K, Metastable crystal | 219.77 J/K/mol
125.41 K, Crystal 2 | 212.45 J/K/mol
126.82 K, Crystal 2 | 214.18 J/K/mol
126.86 K, Crystal 2 | 214.18 J/K/mol
126.95 K, Metastable crystal | 222.38 J/K/mol
127.27 K, Crystal 2 | 214.65 J/K/mol
128.68 K, Crystal 2 | 216.45 J/K/mol
128.72 K, Crystal 2 | 216.36 J/K/mol
128.79 K, Metastable crystal | 224.93 J/K/mol
129.12 K, Crystal 2 | 216.95 J/K/mol
130.54 K, Crystal 2 | 218.78 J/K/mol
130.57 K, Crystal 2 | 218.72 J/K/mol
130.63 K, Metastable crystal | 227.59 J/K/mol
130.97 K, Crystal 2 | 219.24 J/K/mol
132.4 K, Crystal 2 | 221.01 J/K/mol
132.43 K, Crystal 2 | 221.01 J/K/mol
132.46 K, Metastable crystal | 230.26 J/K/mol
132.83 K, Crystal 2 | 221.54 J/K/mol
134.26 K, Crystal 2 | 223.47 J/K/mol
134.29 K, Crystal 2 | 223.34 J/K/mol
134.3 K, Metastable crystal | 232.84 J/K/mol
134.69 K, Crystal 2 | 223.96 J/K/mol
136.12 K, Crystal 2 | 225.86 J/K/mol
136.14 K, Metastable crystal | 235.54 J/K/mol
136.15 K, Crystal 2 | 225.83 J/K/mol
136.55 K, Crystal 2 | 226.35 J/K/mol
137.98 K, Crystal 2 | 228.34 J/K/mol
137.98 K, Metastable crystal | 238.37 J/K/mol
138.01 K, Crystal 2 | 228.37 J/K/mol
138.41 K, Crystal 2 | 228.74 J/K/mol
139.81 K, Metastable crystal | 241.04 J/K/mol
139.84 K, Crystal 2 | 230.89 J/K/mol
139.87 K, Crystal 2 | 230.85 J/K/mol
140.27 K, Crystal 2 | 231.16 J/K/mol
141.65 K, Metastable crystal | 243.74 J/K/mol
141.7 K, Crystal 2 | 233.49 J/K/mol
141.73 K, Crystal 2 | 233.37 J/K/mol
142.13 K, Crystal 2 | 233.8 J/K/mol
143.48 K, Metastable crystal | 246.44 J/K/mol
143.56 K, Crystal 2 | 236.57 J/K/mol
143.59 K, Crystal 2 | 236.07 J/K/mol
143.98 K, Crystal 2 | 236.57 J/K/mol
145.31 K, Metastable crystal | 249.26 J/K/mol
145.41 K, Crystal 2 | 240.45 J/K/mol
145.44 K, Crystal 2 | 238.96 J/K/mol
145.83 K, Crystal 2 | 239.61 J/K/mol
147.15 K, Metastable crystal | 251.93 J/K/mol
147.26 K, Crystal 2 | 246.19 J/K/mol
147.3 K, Crystal 2 | 242.18 J/K/mol
147.68 K, Crystal 2 | 243.36 J/K/mol
148.98 K, Metastable crystal | 254.72 J/K/mol
149.09 K, Crystal 2 | 256.71 J/K/mol
149.15 K, Crystal 2 | 246.16 J/K/mol
149.52 K, Crystal 2 | 249.76 J/K/mol
150.8 K, Metastable crystal | 257.49 J/K/mol
150.89 K, Crystal 2 | 272.54 J/K/mol
150.98 K, Crystal 2 | 254.94 J/K/mol
151.34 K, Crystal 2 | 267.23 J/K/mol
152.63 K, Metastable crystal | 260.28 J/K/mol
152.68 K, Crystal 2 | 270.46 J/K/mol
152.77 K, Crystal 2 | 286.32 J/K/mol
153.11 K, Crystal 1 | 287.72 J/K/mol
154.46 K, Metastable crystal | 263.04 J/K/mol
154.51 K, Crystal 1 | 248.64 J/K/mol
154.55 K, Crystal 1 | 265.74 J/K/mol
154.91 K, Crystal 1 | 252.18 J/K/mol
156.28 K, Metastable crystal | 265.84 J/K/mol
156.37 K, Crystal 1 | 244.36 J/K/mol
156.4 K, Crystal 1 | 246.87 J/K/mol
156.77 K, Crystal 1 | 244.82 J/K/mol
158.1 K, Metastable crystal | 268.6 J/K/mol
158.25 K, Crystal 1 | 245.1 J/K/mol
158.27 K, Crystal 1 | 245.66 J/K/mol
158.64 K, Crystal 1 | 245.51 J/K/mol
159.92 K, Metastable crystal | 271.3 J/K/mol
160.13 K, Crystal 1 | 246.75 J/K/mol
160.14 K, Crystal 1 | 247 J/K/mol
160.51 K, Crystal 1 | 247.09 J/K/mol
161.74 K, Metastable crystal | 273.94 J/K/mol
162 K, Crystal 1 | 248.58 J/K/mol
162.02 K, Crystal 1 | 248.64 J/K/mol
162.38 K, Crystal 1 | 248.95 J/K/mol
163.55 K, Metastable crystal | 276.55 J/K/mol
163.88 K, Crystal 1 | 250.47 J/K/mol
163.89 K, Crystal 1 | 250.47 J/K/mol
164.25 K, Crystal 1 | 250.81 J/K/mol
165.36 K, Metastable crystal | 279.12 J/K/mol
165.76 K, Crystal 1 | 252.37 J/K/mol and 252.4 J/K/mol
166.12 K, Crystal 1 | 252.83 J/K/mol
167.18 K, Metastable crystal | 281.64 J/K/mol
167.63 K, Crystal 1 | 254.38 J/K/mol
167.64 K, Crystal 1 | 254.38 J/K/mol
168 K, Crystal 1 | 254.82 J/K/mol
168.99 K, Metastable crystal | 284.12 J/K/mol
169.51 K, Crystal 1 | 256.4 J/K/mol and 256.43 J/K/mol
169.87 K, Crystal 1 | 256.8 J/K/mol
170.8 K, Metastable crystal | 286.54 J/K/mol
171.38 K, Crystal 1 | 258.48 J/K/mol
171.39 K, Crystal 1 | 258.39 J/K/mol
171.74 K, Crystal 1 | 258.82 J/K/mol
172.6 K, Metastable crystal | 288.9 J/K/mol
173.25 K, Crystal 1 | 260.44 J/K/mol
173.26 K, Crystal 1 | 260.44 J/K/mol
173.61 K, Crystal 1 | 260.81 J/K/mol
174.41 K, Metastable crystal | 291.14 J/K/mol
175.13 K, Crystal 1 | 262.42 J/K/mol and 262.45 J/K/mol
175.48 K, Crystal 1 | 262.89 J/K/mol
176.21 K, Metastable crystal | 293.28 J/K/mol
177 K, Crystal 1 | 264.5 J/K/mol
177.01 K, Crystal 1 | 264.53 J/K/mol
177.35 K, Crystal 1 | 264.94 J/K/mol
178.02 K, Metastable crystal | 295.36 J/K/mol
178.87 K, Crystal 1 | 266.49 J/K/mol and 266.55 J/K/mol
179.21 K, Crystal 1 | 266.96 J/K/mol
179.82 K, Metastable crystal | 297.28 J/K/mol
180.74 K, Crystal 1 | 268.51 J/K/mol and 268.63 J/K/mol
181.08 K, Crystal 1 | 268.91 J/K/mol
181.62 K, Metastable crystal | 299.18 J/K/mol
182.6 K, Crystal 1 | 270.65 J/K/mol
182.94 K, Crystal 1 | 270.99 J/K/mol
183.43 K, Metastable crystal | 301.07 J/K/mol
184.47 K, Crystal 1 | 272.64 J/K/mol
184.8 K, Crystal 1 | 273.01 J/K/mol
185.23 K, Metastable crystal | 302.81 J/K/mol
186.33 K, Crystal 1 | 274.72 J/K/mol
186.66 K, Crystal 1 | 275.06 J/K/mol
187.02 K, Metastable crystal | 304.48 J/K/mol
188.19 K, Crystal 1 | 276.76 J/K/mol
188.51 K, Crystal 1 | 277.07 J/K/mol
188.82 K, Metastable crystal | 306.1 J/K/mol
190.05 K, Crystal 1 | 278.78 J/K/mol and 278.81 J/K/mol
190.37 K, Crystal 1 | 279.22 J/K/mol
190.62 K, Metastable crystal | 307.62 J/K/mol
191.9 K, Crystal 1 | 280.86 J/K/mol
191.91 K, Crystal 1 | 280.89 J/K/mol
192.22 K, Crystal 1 | 281.33 J/K/mol
192.42 K, Metastable crystal | 309.11 J/K/mol
193.75 K, Crystal 1 | 282.97 J/K/mol
193.77 K, Crystal 1 | 283 J/K/mol
194.07 K, Crystal 1 | 283.44 J/K/mol
194.22 K, Metastable crystal | 310.72 J/K/mol
195.6 K, Crystal 1 | 285.05 J/K/mol
195.62 K, Crystal 1 | 285.05 J/K/mol
195.92 K, Crystal 1 | 285.39 J/K/mol
196.01 K, Metastable crystal | 311.96 J/K/mol
197.45 K, Crystal 1 | 286.95 J/K/mol
197.47 K, Crystal 1 | 287.13 J/K/mol
197.77 K, Crystal 1 | 287.47 J/K/mol
197.81 K, Metastable crystal | 313.21 J/K/mol
199.3 K, Crystal 1 | 289.24 J/K/mol
199.32 K, Crystal 1 | 289.18 J/K/mol
199.61 K, Crystal 1 | 289.43 J/K/mol
199.61 K, Metastable crystal | 314.45 J/K/mol
201.21 K, Crystal 1 | 291.45 J/K/mol
201.24 K, Crystal 1 | 291.48 J/K/mol
201.47 K, Metastable crystal | 316.31 J/K/mol
201.52 K, Crystal 1 | 291.79 J/K/mol
203.18 K, Crystal 1 | 293.59 J/K/mol
203.21 K, Crystal 1 | 293.87 J/K/mol
203.39 K, Metastable crystal | 317.86 J/K/mol
203.49 K, Crystal 1 | 293.96 J/K/mol
205.15 K, Crystal 1 | 295.85 J/K/mol
205.18 K, Crystal 1 | 296.01 J/K/mol
